Measurements from ChEMBL document CHEMBL2021790, “Pyridone methylsulfone hydroxamate LpxC inhibitors for the treatment of serious gram-negative infections” (J Med Chem, 2012).
In brackets after ≈: the same amount, converted by molar mass.

Assays:
[1] = tested on: Pseudomonas aeruginosa; test: Antimicrobial activity against Pseudomonas aeruginosa PA3919 with (delta(mexAB-OprM)delta(mexXY)delta(MexZ) phenotype after 16 to 20 hrs by 2-fold microbroth dilution method; type: functional
[2] = target: T1, UDP-3-O-acyl-N-acetylglucosamine deacetylase (Pseudomonas aeruginosa (strain ATCC 15692 / PAO1 / 1C / PRS 101 / LMG12228), UniProt P47205); test: Inhibition of Pseudomonas aeruginosa LpxC expressed in Escherichia coli using UDP-3-O-N-acetylglucosamine substrate measured after 30 mins by mass spectrometry
T1 sequence (P47205 whole entry): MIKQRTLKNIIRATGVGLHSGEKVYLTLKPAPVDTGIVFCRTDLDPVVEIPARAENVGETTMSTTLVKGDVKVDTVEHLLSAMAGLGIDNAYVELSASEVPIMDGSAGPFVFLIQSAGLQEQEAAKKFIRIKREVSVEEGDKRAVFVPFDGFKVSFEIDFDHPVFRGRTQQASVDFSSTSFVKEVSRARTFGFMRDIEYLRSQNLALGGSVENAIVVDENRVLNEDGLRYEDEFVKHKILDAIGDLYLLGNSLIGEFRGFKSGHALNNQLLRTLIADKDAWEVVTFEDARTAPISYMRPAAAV

[3] = tested on: Pseudomonas aeruginosa; test: Antimicrobial activity against wild type Pseudomonas aeruginosa PA01 after 16 to 20 hrs by 2-fold microbroth dilution method; type: functional
[4] = tested on: Klebsiella aerogenes; test: microbe, parasite or virus in culture
Description: Antimicrobial activity against Enterobacter aerogenes after 16 to 20 hrs by 2-fold microbroth dilution method

[5] = tested on: Citrobacter freundii; test: microbe, parasite or virus in culture
Description: Antimicrobial activity against Citrobacter freundii after 16 to 20 hrs by 2-fold microbroth dilution method

[6] = tested on: Acinetobacter sp.; test: Antimicrobial activity against Acinetobacter sp. after 16 to 20 hrs by 2-fold microbroth dilution method; type: functional
[7] = tested on: Klebsiella pneumoniae; test: microbe, parasite or virus in culture
Description: Antimicrobial activity against Klebsiella pneumoniae after 16 to 20 hrs by 2-fold microbroth dilution method

[8] = tested on: Escherichia coli; test: microbe, parasite or virus in culture
Description: Antimicrobial activity against Escherichia coli after 16 to 20 hrs by 2-fold microbroth dilution method

[9] = tested on: Pseudomonas aeruginosa; test: microbe, parasite or virus in culture
Description: Antimicrobial activity against Pseudomonas aeruginosa after 16 to 20 hrs by 2-fold microbroth dilution method

Structure (SMILES): C[C@@](CCn1ccc(-c2cc(F)ccc2F)cc1=O)(C(=O)NO)S(C)(=O)=O
- MIC [1]: 0.03 µg/mL (≈ 0.0749 µM)
- IC50 [2]: 4.4 nM
- MIC [3]: 1 µg/mL (≈ 2.5 µM)

Structure (SMILES): C[C@@](CCn1ccc(CCc2ccccc2)cc1=O)(C(=O)NO)S(C)(=O)=O
- MIC [1]: 0.03 µg/mL (≈ 0.0764 µM)
- IC50 [2]: 6 nM
- MIC [3]: 2 µg/mL (≈ 5.1 µM)

Structure (SMILES): Cc1ccn(CC[C@](C)(C(=O)NO)S(C)(=O)=O)c(=O)c1
- MIC [1]: 8 µg/mL (≈ 26.5 µM)
- IC50 [2]: > 100 nM
- MIC [3]: 64 µg/mL (≈ 212 µM)

Structure (SMILES): C[C@@](CCn1cc(F)c(-c2ccccc2)cc1=O)(C(=O)NO)S(C)(=O)=O
- MIC90 [4]: 8 µg/mL (≈ 20.9 µM)
- MIC [1]: 0.015 µg/mL (≈ 0.0392 µM)
- MIC90 [5]: 8 µg/mL (≈ 20.9 µM)
- MIC90 [6]: 32 µg/mL (≈ 83.7 µM)
- MIC90 [7]: 8 µg/mL (≈ 20.9 µM)
- MIC90 [8]: 4 µg/mL (≈ 10.5 µM)
- IC50 [2]: 2.3 nM
- MIC90 [9]: 4 µg/mL (≈ 10.5 µM)
- MIC [3]: 0.5 µg/mL (≈ 1.31 µM)

Structure (SMILES): C[C@@](CCn1ccc(-c2ccc(-c3ccon3)cc2)cc1=O)(C(=O)NO)S(C)(=O)=O
- MIC [1]: 0.015 µg/mL (≈ 0.0348 µM)
- IC50 [2]: 1.1 nM
- MIC [3]: 0.25 µg/mL (≈ 0.579 µM)

Structure (SMILES): COc1ccccc1-c1ccn(CC[C@](C)(C(=O)NO)S(C)(=O)=O)c(=O)c1
- MIC [1]: 0.125 µg/mL (≈ 0.317 µM)
- IC50 [2]: 12 nM
- MIC [3]: 4 µg/mL (≈ 10.1 µM)

Structure (SMILES): C[C@@](CCn1ccc(-c2ccccc2)nc1=O)(C(=O)NO)S(C)(=O)=O
- MIC [1]: 0.5 µg/mL (≈ 1.37 µM)
- IC50 [2]: 57 nM
- MIC [3]: 16 µg/mL (≈ 43.8 µM)

Structure (SMILES): COc1cccc(-c2ccn(CC[C@](C)(C(=O)NO)S(C)(=O)=O)c(=O)c2)c1
- MIC [1]: 0.03 µg/mL (≈ 0.0761 µM)
- IC50 [2]: 3.7 nM
- MIC [3]: 1 µg/mL (≈ 2.54 µM)

Structure (SMILES): C[C@@](CCn1ccc(-c2ccc(F)cc2)cc1=O)(C(=O)NO)S(C)(=O)=O
- MIC [1]: 0.008 µg/mL (≈ 0.0209 µM)
- IC50 [2]: 2.9 nM
- MIC [3]: 0.25 µg/mL (≈ 0.654 µM)

Structure (SMILES): C[C@@](CCn1ncc(-c2ccccc2)cc1=O)(C(=O)NO)S(C)(=O)=O
- MIC [1]: 1 µg/mL (≈ 2.74 µM)
- IC50 [2]: > 72 nM
- MIC [3]: 32 µg/mL (≈ 87.6 µM)

Structure (SMILES): C[C@@](CCn1ccc(/C=C/c2ccccc2)cc1=O)(C(=O)NO)S(C)(=O)=O
- MIC [1]: 0.03 µg/mL (≈ 0.0768 µM)
- IC50 [2]: 3.2 nM
- MIC [3]: 0.5 µg/mL (≈ 1.28 µM)

Structure (SMILES): CC(CCc1ccc(-c2ccccc2)nc1O)(C(=O)NO)S(C)(=O)=O (racemic)
- MIC [1]: 1 µg/mL (≈ 2.74 µM)
- IC50 [2]: 53 nM
- MIC [3]: 32 µg/mL (≈ 87.8 µM)

Structure (SMILES): CC(CCc1ncc(-c2ccccc2)cn1)(C(=O)NO)S(C)(=O)=O (racemic)
- MIC [1]: 4 µg/mL (≈ 11.4 µM)
- IC50 [2]: > 100 nM
- MIC [3]: > 64 µg/mL

Structure (SMILES): CC(CCn1ccc(C2CCCCC2)cc1=O)(C(=O)NO)S(C)(=O)=O (racemic)
- MIC [1]: 0.06 µg/mL (≈ 0.162 µM)
- IC50 [2]: 11 nM
- MIC [3]: 2 µg/mL (≈ 5.4 µM)

Structure (SMILES): C[C@@](CCn1ccc(-c2ccncc2)cc1=O)(C(=O)NO)S(C)(=O)=O
- MIC [1]: 0.5 µg/mL (≈ 1.37 µM)
- IC50 [2]: 39 nM
- MIC [3]: 32 µg/mL (≈ 87.6 µM)

Structure (SMILES): C[C@@](CCn1ccc(-c2ccc(F)c(F)c2F)cc1=O)(C(=O)NO)S(C)(=O)=O
- MIC90 [4]: 1 µg/mL (≈ 2.39 µM)
- MIC [1]: 0.015 µg/mL (≈ 0.0359 µM)
- MIC90 [5]: 0.5 µg/mL (≈ 1.2 µM)
- MIC90 [6]: > 64 µg/mL
- MIC90 [7]: 2 µg/mL (≈ 4.78 µM)
- MIC90 [8]: 0.5 µg/mL (≈ 1.2 µM)
- IC50 [2]: 1.5 nM
- MIC90 [9]: 1 µg/mL (≈ 2.39 µM)
- MIC [3]: 0.25 µg/mL (≈ 0.598 µM)

Structure (SMILES): C[C@@](CCn1ccc(-c2ccc(Cl)c(F)c2F)cc1=O)(C(=O)NO)S(C)(=O)=O
- MIC90 [4]: 0.25 µg/mL (≈ 0.575 µM)
- MIC [1]: 0.008 µg/mL (≈ 0.0184 µM)
- MIC90 [5]: 0.25 µg/mL (≈ 0.575 µM)
- MIC90 [6]: > 64 µg/mL
- MIC90 [7]: 0.5 µg/mL (≈ 1.15 µM)
- MIC90 [8]: 0.06 µg/mL (≈ 0.138 µM)
- IC50 [2]: 0.52 nM
- MIC90 [9]: 0.25 µg/mL (≈ 0.575 µM)
- MIC [3]: 0.125 µg/mL (≈ 0.287 µM)

Structure (SMILES): C[C@@](CCn1ccc(-c2ccccc2F)cc1=O)(C(=O)NO)S(C)(=O)=O
- MIC [1]: 0.015 µg/mL (≈ 0.0392 µM)
- IC50 [2]: 2.2 nM
- MIC [3]: 0.25 µg/mL (≈ 0.654 µM)

Structure (SMILES): Cc1cc(-c2ccccc2)cc(=O)n1CC[C@](C)(C(=O)NO)S(C)(=O)=O
- MIC [1]: 0.125 µg/mL (≈ 0.33 µM)
- IC50 [2]: 22 nM
- MIC [3]: 4 µg/mL (≈ 10.6 µM)

Structure (SMILES): Cc1cccc(C)c1-c1ccn(CC[C@](C)(C(=O)NO)S(C)(=O)=O)c(=O)c1
- MIC [1]: 2 µg/mL (≈ 5.1 µM)
- IC50 [2]: > 87 nM
- MIC [3]: 64 µg/mL (≈ 163 µM)

Structure (SMILES): COc1ccc(-c2ccn(CC[C@](C)(C(=O)NO)S(C)(=O)=O)c(=O)c2)cc1F
- MIC [1]: 0.03 µg/mL (≈ 0.0727 µM)
- IC50 [2]: 2 nM
- MIC [3]: 0.5 µg/mL (≈ 1.21 µM)

Structure (SMILES): COc1cnc(-c2ccc(-c3ccn(CC[C@](C)(C(=O)NO)S(C)(=O)=O)c(=O)c3)cc2)nc1
- MIC [1]: 0.03 µg/mL (≈ 0.0635 µM)
- IC50 [2]: 1.2 nM
- MIC [3]: 0.25 µg/mL (≈ 0.529 µM)

Structure (SMILES): COc1ccc(-c2ccn(CC[C@](C)(C(=O)NO)S(C)(=O)=O)c(=O)c2)cn1
- MIC90 [4]: 32 µg/mL (≈ 80.9 µM)
- MIC [1]: 0.06 µg/mL (≈ 0.152 µM)
- MIC90 [5]: 16 µg/mL (≈ 40.5 µM)
- MIC90 [6]: > 64 µg/mL
- MIC90 [7]: 32 µg/mL (≈ 80.9 µM)
- MIC90 [8]: 8 µg/mL (≈ 20.2 µM)
- IC50 [2]: 6.4 nM
- MIC90 [9]: 16 µg/mL (≈ 40.5 µM)
- MIC [3]: 2 µg/mL (≈ 5.06 µM)

Structure (SMILES): C[C@@](CCn1ccc(C2=CCCCC2)cc1=O)(C(=O)NO)S(C)(=O)=O
- MIC [1]: 0.03 µg/mL (≈ 0.0814 µM)
- IC50 [2]: 4.1 nM
- MIC [3]: 0.5 µg/mL (≈ 1.36 µM)
